Data published in the supplement of paper PMC11208160.

assay: recombinant UMI read abundance after kanamycin selection (control-corrected) (log10(CPM+1)); higher = more efficient recombination; extreme values may be limits of the assay; sequences stand for … in AGTGCAGAGAAAATCGGCCAGTTTTCTCTGCCTGCAGTCCGCATGCCGTGGGACCCCTTGGGTTCTAACCTGTTGCCTAGATTTATGCAGCGGACTGCCTTTCTCCCAAAGTGATAAACCGG…AGGTTGGTTTCACT; site = the 11-nt donor
How it was run: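 Under IPTG (0.07 mM) plus kanamycin, or without selection, Escherichia coli carrying a UMI-tagged donor and donor-binding-loop pair library and a target plasmid for the IS621 bridge recombinase were plated in two replicates. Recombinant UMIs were PCR-amplified across the donor–target junction and sequenced. Counts were converted to CPM, averaged over replicates, scaled by control-derived factors and reported as log10(CPM+1).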
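Note: IS621 bridge recombinase in Escherichia coli cells against a fixed T5 target plasmid.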

Row | Sequence | recombinant UMI read abundance (log10)
1 | CAAGTGACATGGACCGGTTTTCCCGGTAATCCGTATTTGGG (site CAAGTTACTCC) | 0.48
2 | CAATACGCATGGACCGGTTTTCCCGGTAATCCGTATTTGAT (site CAATACGCTAT) | 2.03
3 | CAATACTCATGGACCGGTTTTCCCGGTAATCCGTATTTGAA (site CAATACTCTTT) | 3.09
4 | CAATACTCATGGACCGGTTTTCCCGGTAATCCGTATTTGAA (site CAATCCTCTTT) | 0
5 | CAATACTCATGGACCGGTTTTCCCGGTAATCCGTATTTGAA (site CAATGCTCTTT) | 0.0128
6 | CAATACTCATGGACCGGTTTTCCCGGTAATCCGTATTTGAA (site CAATTCTCTTT) | 0
7 | CAATCACCATGGACCGGTTTTCCCGGTAATCCGTATTTGCT (site CAATCACCTAG) | 0.00562
8 | CAATCACCATGGACCGGTTTTCCCGGTAATCCGTATTTGCT (site CGATCATCTAG) | 0
9 | CAATCATCATGGACCGGTTTTCCCGGTAATCCGTATTTGCT (site CAATCATCTAG) | 2.15
10 | CAATCATCATGGACCGGTTTTCCCGGTAATCCGTATTTGCT (site CCATCATCTAG) | 0.883
11 | CAATCATCATGGACCGGTTTTCCCGGTAATCCGTATTTGCT (site CGATCATCTAG) | 0.258
12 | CAATCATCATGGACCGGTTTTCCCGGTAATCCGTATTTGCT (site CTATCATCTAG) | 0.404
13 | CAATCTGCATGGACCGGTTTTCCCGGTAATCCGTATTTGCT (site CAATCTGCTAG) | 0.515
14 | CAATGCCCATGGACCGGTTTTCCCGGTAATCCGTATTTGAA (site CAATGCACTTT) | 0.00911
15 | CAATGCCCATGGACCGGTTTTCCCGGTAATCCGTATTTGAA (site CAATGCCCTTT) | 1
16 | CAATGCCCATGGACCGGTTTTCCCGGTAATCCGTATTTGAA (site CAATGCGCTTT) | 0.00922
17 | CAATGCCCATGGACCGGTTTTCCCGGTAATCCGTATTTGAA (site CAATGCTCTTT) | 1.62
18 | CAATGCTCATGGACCGGTTTTCCCGGTAATCCGTATTTGAG (site CAATGCTCTAT) | 1.46
19 | CAATGCTCATGGACCGGTTTTCCCGGTAATCCGTATTTGAG (site CAATGCTCTCT) | 2.2
20 | CAATGCTCATGGACCGGTTTTCCCGGTAATCCGTATTTGAG (site CAATGCTCTGT) | 0.535
21 | CAATGCTCATGGACCGGTTTTCCCGGTAATCCGTATTTGAG (site CAATGCTCTTT) | 0.812
22 | CAATGGCCATGGACCGGTTTTCCCGGTAATCCGTATTTGCG (site CAATGGCCTCG) | 0.00456
23 | CAATGGTCATGGACCGGTTTTCCCGGTAATCCGTATTTGAA (site CAATGATCTTT) | 2.68

Row | Sequence | recombinant UMI read abundance (log10)
24 | CAATGGTCATGGACCGGTTTTCCCGGTAATCCGTATTTGAA (site CAATGCTCTTT) | 0.00506
25 | CAATGGTCATGGACCGGTTTTCCCGGTAATCCGTATTTGAA (site CAATGGTCTTT) | 2.39
26 | CAATGGTCATGGACCGGTTTTCCCGGTAATCCGTATTTGAA (site CAATGTTCTTT) | 0
27 | CAATGTTCATGGACCGGTTTTCCCGGTAATCCGTATTTGAA (site CAATGATCTTT) | 0.287
28 | CAATGTTCATGGACCGGTTTTCCCGGTAATCCGTATTTGAA (site CAATGCTCTTT) | 0.0108
29 | CAATGTTCATGGACCGGTTTTCCCGGTAATCCGTATTTGAA (site CAATGGTCTTT) | 0.0106
30 | CAATGTTCATGGACCGGTTTTCCCGGTAATCCGTATTTGAA (site CAATGTTCTTT) | 2.11
31 | CAATTAACATGGACCGGTTTTCCCGGTAATCCGTATTTGCT (site CAATTAACTAG) | 0.982
32 | CAATTCACATGGACCGGTTTTCCCGGTAATCCGTATTTGGG (site CAAATCACTCC) | 0.839
33 | CAATTCACATGGACCGGTTTTCCCGGTAATCCGTATTTGGG (site CAACTCACTCC) | 0.251
34 | CAATTCACATGGACCGGTTTTCCCGGTAATCCGTATTTGGG (site CAAGTCACTCC) | 0.0135
35 | CAATTCACATGGACCGGTTTTCCCGGTAATCCGTATTTGGG (site CAATTCACTCC) | 0.0754
36 | CAATTCCCATGGACCGGTTTTCCCGGTAATCCGTATTTGCA (site CAATTCCCTAG) | 0
37 | CAATTCCCATGGACCGGTTTTCCCGGTAATCCGTATTTGCA (site CAATTCCCTCG) | 0.00698
38 | CAATTCCCATGGACCGGTTTTCCCGGTAATCCGTATTTGCA (site CAATTCCCTGG) | 0
39 | CAATTCCCATGGACCGGTTTTCCCGGTAATCCGTATTTGCA (site CAATTCCCTTG) | 1.27
40 | CAATTCTCATGGACCGGTTTTCCCGGTAATCCGTATTTGCT (site CAATTCACTAG) | 0.75
41 | CAATTCTCATGGACCGGTTTTCCCGGTAATCCGTATTTGCT (site CAATTCCCTAG) | 0.421
42 | CAATTCTCATGGACCGGTTTTCCCGGTAATCCGTATTTGCT (site CAATTCGCTAG) | 0
43 | CAATTCTCATGGACCGGTTTTCCCGGTAATCCGTATTTGCT (site CAATTCTCTAG) | 2.19
44 | CACAACACATGGACCGGTTTTCCCGGTAATCCGTATTTGAC (site CACAACACTGT) | 2.79
45 | CACATGGCATGGACCGGTTTTCCCGGTAATCCGTATTTGGA (site CACATGGCTTC) | 0.785
46 | CACATGGCATGGACCGGTTTTCCCGGTAATCCGTATTTGGA (site CACCTGGCTTC) | 0.346

Row | Sequence | recombinant UMI read abundance (log10)
47 | CACATGGCATGGACCGGTTTTCCCGGTAATCCGTATTTGGA (site CACGTGGCTTC) | 0.414
48 | CACATGGCATGGACCGGTTTTCCCGGTAATCCGTATTTGGA (site CACTTGGCTTC) | 0.388
49 | CACATTGCATGGACCGGTTTTCCCGGTAATCCGTATTTGGT (site CACATTGCTAC) | 1.69
50 | CACCATGCATGGACCGGTTTTCCCGGTAATCCGTATTTGCG (site CACCATGCTCG) | 1.28
51 | CACCCCTCATGGACCGGTTTTCCCGGTAATCCGTATTTGCC (site CACACCTCTGG) | 0
52 | CACCCCTCATGGACCGGTTTTCCCGGTAATCCGTATTTGCC (site CACCCCTCTGG) | 2.71
53 | CACCCCTCATGGACCGGTTTTCCCGGTAATCCGTATTTGCC (site CACGCCTCTGG) | 0
54 | CACCCCTCATGGACCGGTTTTCCCGGTAATCCGTATTTGCC (site CACTCCTCTGG) | 1.21
55 | CACCGATCATGGACCGGTTTTCCCGGTAATCCGTATTTGGC (site CACCGATCTGC) | 3.71
56 | CACCGCCCATGGACCGGTTTTCCCGGTAATCCGTATTTGTT (site CACAGCCCTAA) | 0.00423
57 | CACCGCCCATGGACCGGTTTTCCCGGTAATCCGTATTTGTT (site CACCGCCCTAA) | 0.033
58 | CACCGCCCATGGACCGGTTTTCCCGGTAATCCGTATTTGTT (site CACGGCCCTAA) | 0.0192
59 | CACCGCCCATGGACCGGTTTTCCCGGTAATCCGTATTTGTT (site CACTGCCCTAA) | 0.0163
60 | CACCGCGCATGGACCGGTTTTCCCGGTAATCCGTATTTGTC (site CACCGCGCTGA) | 2.33
61 | CACCGTACATGGACCGGTTTTCCCGGTAATCCGTATTTGAT (site CACCGTACTAT) | 1.95
62 | CACCGTACATGGACCGGTTTTCCCGGTAATCCGTATTTGCT (site CACCGTACTAG) | 2.18
63 | CACCGTACATGGACCGGTTTTCCCGGTAATCCGTATTTGCT (site CCCCGTACTAG) | 0.363
64 | CACCGTACATGGACCGGTTTTCCCGGTAATCCGTATTTGCT (site CGCCGTACTAG) | 0.614
65 | CACCGTACATGGACCGGTTTTCCCGGTAATCCGTATTTGCT (site CTCCGTACTAG) | 0.912
66 | CACCTGGCATGGACCGGTTTTCCCGGTAATCCGTATTTGGA (site CACATGGCTTC) | 0.0162
67 | CACCTGGCATGGACCGGTTTTCCCGGTAATCCGTATTTGGA (site CACCTGGCTTC) | 0.595
68 | CACCTGGCATGGACCGGTTTTCCCGGTAATCCGTATTTGGA (site CACGTGGCTTC) | 0.0355
